Laboratory results from patent publication US9540400B2, “Compounds as diacylglycerol acyltransferase inhibitors” (GlaxoSmithKline Intellectual Property (No. 2) Limited, priority 2011, dated 2017).

Target: T1, Human DGAT1 (Homo sapiens, UniProt O75907)
T1 construct: made in house; host or cells: Sf9 insect cells (baculovirus); microsomes
T1 sequence (O75907 1-488): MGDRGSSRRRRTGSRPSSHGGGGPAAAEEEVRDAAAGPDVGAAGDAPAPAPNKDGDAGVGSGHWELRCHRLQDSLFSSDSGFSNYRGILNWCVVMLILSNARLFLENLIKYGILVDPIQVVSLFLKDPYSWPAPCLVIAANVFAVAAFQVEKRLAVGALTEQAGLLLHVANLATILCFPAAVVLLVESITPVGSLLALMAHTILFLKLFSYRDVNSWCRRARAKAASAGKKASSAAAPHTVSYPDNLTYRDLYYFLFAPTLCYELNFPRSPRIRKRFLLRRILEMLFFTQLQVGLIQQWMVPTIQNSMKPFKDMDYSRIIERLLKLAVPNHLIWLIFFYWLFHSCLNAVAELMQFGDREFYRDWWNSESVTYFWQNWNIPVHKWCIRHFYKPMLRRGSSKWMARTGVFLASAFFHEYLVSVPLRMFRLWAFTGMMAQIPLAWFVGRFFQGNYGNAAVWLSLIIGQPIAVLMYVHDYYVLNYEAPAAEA
Test: hDGAT1 lipid extraction (LE) assay, inhibition of triacylglycerol product formation
Type: biochemical
Settings: human DGAT1 microsomes from Sf9 cells; radiolabelled tridecanoylglycerol extraction
Experimental: Human DGAT1 was expressed in Sf9 insect cells using a baculovirus expression system. Microsomes were prepared and used as enzyme for in vitro inhibition testing in either of two formats measuring production of coenzyme A or tridecanoylglycerol product, respectively. All steps were performed at 21-23° C. All data for DGAT1 inhibition by test compounds were collected under conditions where product formation was linear with reaction time.
For inhibition of triacylglycerol product formation, 11 uL reactions were run in white Polyplate-384 (PerkinElmer6007300) starting with a 30 minute pre-reaction incubation of 5 uL of 2.2× enzyme and 1 uL of 100% DMSO containing test compound or control compound, {4-[4-(4-amino-7,7-dimethyl-7H-pyrimido[4,5-b][1,4]oxazin-6-yl)phenyl]cyclohexyl}acetic acid. Some assays were performed with inclusion of didecanoylglycerol in the pre-reaction incubation of test compounds and enzyme. Reactions were initiated after 30 minute pre-reaction incubation via addition of 5 uL of 2.2× substrate. Final reaction conditions consisted of 50 mM HEPES pH 7.5, 2 mM MgCl2, 1 mM CHAPS, 25 uM didecanoylglycerol, 0.5 uM decanoyl-CoA, 0.3 nCi/uL [^14C]-decanoyl-CoA or 0.5 nCi/uL [^3H]-decanoyl-CoA, 0.05-4 ug/mL microsomal protein, and 1% DMSO. Following 60 minute reaction incubation, reactions were stopped with 40 uL of 45% isopropanol and 50 mM sodium carbonate in water and mixed. Extraction of tridecanoylglycerol product was accomplished via addition of 30 uL Microscint-E (Perkin Elmer) and 2 hours of incubation (sealed). Plates were read on a Microbeta Microplate reader. Inhibition was normalized to controls containing DMSO or 10 uM {4-[4-(4-amino-7,7-dimethyl-7H-pyrimido[4,5-b][1,4]oxazin-6-yl)phenyl]cyclohexyl}acetic acid. IC50s were fitted using GraphPad Prism to a sigmoidal dose response.

SMILES	IC50
Nc1ncnc2c1C(=O)N(c1ccc3ncn(Cc4ccccc4)c(=O)c3c1)CCO2 [Example 97, 4-Amino-6-(3-benzyl-4-oxo-3,4-dihydroquinazolin-6-yl)-7,8-dihydropyrimido[5,4-f][1,4]oxazepin-5(6H)-one]	201 nM
Nc1ncnc2c1C(=O)N(c1ccc3nc[nH]c(=O)c3c1)CCO2 [Example 98, 4-Amino-6-(4-oxo-3,4-dihydroquinazolin-6-yl)-7,8-dihydropyrimido[5,4-f][1,4]oxazepin-5(6H)-one]	623 nM
